Measurements reported in PubChem BioAssay AID2060604 (Molecular Pharmacology Branch, DTP, NCI, 2025).
Values joined by “and” are separate entries in the source; they are usually repeats but may differ in a detail not shown here. Equal entries are not always repeated.

Test system: 379773-124-R-J2-PDC complex spheroids, viability % test/control
Test: Anticancer human tumor 379773-124-R-J2-PDC patient-derived endometrial carcinoma cell line growth inhibition [CLK]
Conditions: for viability, T/C: stronger effect = lower value
From the text: A high-throughput screen of multi-cell type tumor spheroids was designed to identify active combinations of […] and targeted small molecules. Complex spheroids include a stromal component modeled by human endothelial cells (HUVEC) and fibroblasts modeled by human mesenchymal stem cells (MSCs). The concentration ranges selected for each drug and investigational agent were based upon clinically achievable concentrations if the clinical Cmax of the agent was known.
Compounds. The drugs and investigational agents: cirtuvivint (SM08502; NSC835563), CC-671 (NSC850746), vemurafenib (NSC761431), tapotoclax (NSC804041), sotorasib (NSC818433), adagrasib (NSC831453), MRTX-1133 (NSC836407), BAY2416964 (NSC825713), copanlisib (NSC816437), inavolisib (NSC800729), abemaciclib (NSC768073), osimertinib (NSC779217), entinostat (NSC756642), eltanexor (KPT-8602, NSC794443), venetoclax (NSC766270), ceralasertib (NSC777638), bortezomib (NSC756655), olaparib (NSC753686), talazoparib (NSC767125), alisertib (NSC759677), peposertib (NSC802822), gemcitabine (NSC613327), 5-fluorouracil (NSC19893), SN-38 (NSC673596), oxaliplatin (NSC266046), paclitaxel (NSC125973), and doxorubicin (NSC123127), were obtained from the National Cancer Institute (NCI) Developmental Therapeutics Program Chemical Repository. The FDA-approved anticancer drug set is available from the Developmental Therapeutics Program at https://dtp.cancer.gov/organization/dscb/obtaining/available plates.htm. […] The stock solutions were prepared in dimethyl sulfoxide (DMSO, Sigma-Aldrich, St. Louis, MO, cat. D2650), except for the platinum complexes which were prepared in saline (Quality Biological, Gaithersburg, MD, cat. 114-055-101), at 800-fold the tested concentration and stored at -70 degrees C prior to their use. All drugs and investigational agents were tested over a range starting from a high concentration at or near the clinical Cmax and decreasing in half-log increments. If the clinical Cmax for an agent had not been determined, the highest concentration tested was 10 microM.
Cell Culture. All cells were maintained in an incubator at 37 degrees C and 5% CO2 with 95% humidity. The PDC lines were cultured according to standard operating procedures established by the NCI PDMR. Briefly, all PDCs were thawed and cultured in Matrigel-coated flasks prepared with a working solution of 1X Ham's F-12 nutrient mix, without supplementation (Invitrogen, Waltham, MA, cat. 11765054), 100 U/mL penicillin-streptomycin (Invitrogen, cat. 15140122), and 2.5% Matrigel (Corning Inc., Corning, NY, cat. 354248) for the first three passages. The 947758-054-R-J2-PDC line was cultured in 6B/Colon 1A media, which includes advanced DMEM/F-12 (Thermo Fisher Scientific, cat. 12634028), 10 mM HEPES (Thermo Fisher Scientific, cat. 15630080), 1X GlutaMAX supplement (Thermo Fisher Scientific, cat. 35050061), 0.1 mg/mL primocin (InvivoGen, cat. ant-pm-2), 10% defined fetal bovine serum, heat inactivated (HyClone Laboratories Inc., cat. SH30070.03HI), 1.25 mM N-Acetyl-L-cysteine (Sigma-Aldrich, cat. A9165), 10 mM nicotinamide (Sigma-Aldrich, cat. N0636), 1X B-27 supplement (Thermo Fisher Scientific, cat. 17504044), 1X N-2 supplement (Thermo Fisher Scientific, cat. 17502048), and 10 microM Y-27632 dihydrochloride (Tocris Bioscience, cat. 1254). The 876862-298-R-J1-PDC was cultured in 6E media, which includes all 6B/Colon 1A media components plus 50% L-WRN conditioned media (ATCC, cat. CRL-3276), 50 ng/mL recombinant human EGF recombinant protein (hEGF; Thermo Fisher Scientific, cat. PHG0311), 10 ng/mL recombinant human fibroblast growth factor 10 (hGFG-10; PeproTech, cat. 100-26), 1 ng/mL recombinant human fibroblast growth factor 2 (hFGF-2; PeproTech, cat. 100-18B), and 1 µM prostaglandin E2 (PGE2; Tocris, cat. 2296). The 227483-062-R1-J1-PDC line was cultured in Panc media, containing all 6E components except hFGF-2, with the addition of 500 nM SB-431542 (Selleckchem, cat. S1067) and 10 nM gastrin (Tocris, cat. 3006). […]
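Also: compound exposure lasted seven days before the viability readout.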
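For viability, T/C in this document: 100% = DMSO vehicle control wells.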

SMILES: CC(=O)O[C@H]1C(=O)[C@@]2(C)[C@H]([C@H](OC(=O)c3ccccc3)[C@]3(O)C[C@H](OC(=O)[C@H](O)[C@@H](NC(=O)c4ccccc4)c4ccccc4)C(C)=C1C3(C)C)[C@]1(OC(C)=O)CO[C@@H]1C[C@@H]2O
- viability, T/C (compound 0.0316 µM): 6.12% and 4.78%
- viability, T/C (compound 0.1 µM): 5.31% and 6.44%
- viability, T/C (compound 0.316 µM): 6.35% and 7.02%
- viability, T/C (compound 1 µM): 6.24% and 5.61%
- viability, T/C (compound 3.16 µM): 4.99% and 3.42%
- viability, T/C (compound 10 µM): 6.18% and 4.64%
- IC50 (curve of compound): < 31.6 nM

SMILES: COc1ccc([C@@H](O)c2cc(-c3ncnc4cc(N5CCOCC5)ccc34)c(F)cc2Cl)nn1
- viability, T/C (compound 0.0316 µM): 95.4% and 83.8%
- viability, T/C (compound 0.1 µM): 98.1% and 79.4%
- viability, T/C (compound 0.316 µM): 81.3% and 79.2%
- viability, T/C (compound 1 µM): 84.2% and 84.5%
- viability, T/C (compound 3.16 µM): 68% and 79%
- viability, T/C (compound 10 µM): 33.4% and 29.9%
- IC50 (curve of compound): 5670 nM and 6250 nM

SMILES: COc1cccc2c1C(=O)c1c(O)c3c(c(O)c1C2=O)CC(O)(C(=O)CO)CC3OC1CC(N)C(O)C(C)O1 (stereo not drawn)
- viability, T/C (compound 0.0316 µM): 53.6% and 49.6%
- viability, T/C (compound 0.1 µM): 9.76% and 9.37%
- viability, T/C (compound 0.316 µM): 7.51% and 5.56%
- viability, T/C (compound 1 µM): 3.51% and 3.77%
- viability, T/C (compound 3.16 µM): 1.61% and 0.59%
- viability, T/C (compound 10 µM): 0.12% and 0.15%
- IC50 (curve of compound): 34.5 nM and < 31.6 nM

SMILES: C=CC(=O)N1CCN(c2nc(=O)n(-c3c(C)ccnc3C(C)C)c3nc(-c4c(O)cccc4F)c(F)cc23)C(C)C1 (stereo not drawn) + CN1CCN(c2cc(C(=O)Nc3cc4cc(-c5cnn(C)c5)ccc4cn3)ccn2)CC1
- IC50 (curve of first compound, second compound 0.0316 µM): > 10000 nM
- IC50 (curve of first compound, second compound 0.1 µM): > 10000 nM
- IC50 (curve of first compound, second compound 0.316 µM): < 31.6 nM
- IC50 (curve of first compound, second compound 1 µM): < 31.6 nM
- IC50 (curve of first compound, second compound 3.16 µM): < 31.6 nM
- IC50 (curve of first compound, second compound 10 µM): < 31.6 nM
- viability, T/C (second compound 0.0316 µM, first compound 0.0316 µM): 105%
- viability, T/C (second compound 0.0316 µM, first compound 0.1 µM): 92.5%
- viability, T/C (second compound 0.0316 µM, first compound 0.316 µM): 91.2%
- viability, T/C (second compound 0.0316 µM, first compound 1 µM): 94.4%
- viability, T/C (second compound 0.0316 µM, first compound 3.16 µM): 84.6%
- viability, T/C (second compound 0.0316 µM, first compound 10 µM): 75.2%
- viability, T/C (second compound 0.1 µM, first compound 0.0316 µM): 85.5%
- viability, T/C (second compound 0.1 µM, first compound 0.1 µM): 79.2%
- viability, T/C (second compound 0.1 µM, first compound 0.316 µM): 72.5%
- viability, T/C (second compound 0.1 µM, first compound 1 µM): 88.1%
- viability, T/C (second compound 0.1 µM, first compound 3.16 µM): 84.2%
- viability, T/C (second compound 0.1 µM, first compound 10 µM): 62.5%
- viability, T/C (second compound 0.316 µM, first compound 0.0316 µM): 29.6%
- viability, T/C (second compound 0.316 µM, first compound 0.1 µM): 32.8%
- viability, T/C (second compound 0.316 µM, first compound 0.316 µM): 29.3%
- viability, T/C (second compound 0.316 µM, first compound 1 µM): 29.2%
- viability, T/C (second compound 0.316 µM, first compound 3.16 µM): 38.5%
- viability, T/C (second compound 0.316 µM, first compound 10 µM): 13.2%
- viability, T/C (second compound 1 µM, first compound 0.0316 µM): 0.15%
- viability, T/C (second compound 1 µM, first compound 0.1 µM): 3.06%
- viability, T/C (second compound 1 µM, first compound 0.316 µM): 0.25%
- viability, T/C (second compound 1 µM, first compound 1 µM): 1.12%
- viability, T/C (second compound 1 µM, first compound 3.16 µM): 1.01%
- viability, T/C (second compound 1 µM, first compound 10 µM): 0.17%
- viability, T/C (second compound 3.16 µM, first compound 0.0316 µM): 0.18%
- viability, T/C (second compound 3.16 µM, first compound 0.1 µM): 0.13%
- viability, T/C (second compound 3.16 µM, first compound 0.316 µM): 0.13%
- viability, T/C (second compound 3.16 µM, first compound 1 µM): 0.34%
- viability, T/C (second compound 3.16 µM, first compound 3.16 µM): 1.33%
- viability, T/C (second compound 3.16 µM, first compound 10 µM): 1.3%
- viability, T/C (second compound 10 µM, first compound 0.0316 µM): 0.12%
- viability, T/C (second compound 10 µM, first compound 0.1 µM): 0.54%
- viability, T/C (second compound 10 µM, first compound 0.316 µM): 1.42%
- viability, T/C (second compound 10 µM, first compound 1 µM): 0.17%
- viability, T/C (second compound 10 µM, first compound 3.16 µM): 1.04%
- viability, T/C (second compound 10 µM, first compound 10 µM): 0.5%
